# Test results published in patent US20250000850A1, “COMPOSITION USED TO PREVENT OR SUPPRESS REFEEDING SYNDROME” (OTSUKA PHARMACEUTICAL FACTORY, INC., priority 2021, published 2025).
# Assay: Effect of rapamycin on blood phosphorus concentration after refeeding to protein-undernourished rats
# Format: in vivo, male Wistar rats
# Details: rapamycin 2 mg/mL at 0.75 mL/kg i.p., mean ± SD, n=8
# Procedure: Using male Wistar rats (7 weeks old at time of purchase; Charles River Laboratories Japan, Inc.), a group of rats fed with a purified diet having a protein content of 2.5% (referred to below as “low-protein diet”) for at least 3 weeks, and a group of rats fed with a purified diet having a protein content of 20% (referred to below as “normal diet”) for at least 3 weeks were prepared. […] Each animal had access to tap water ad libitum for at least 3 weeks. After fasting with ad libitum access to water for 24 hours, jugular vein catheterization was performed under isoflurane anesthesia, and the other end of the catheter was passed under the skin, exited from the back, and connected to a syringe containing physiological saline via a harness. The rats were then kept in individual metabolic cages with the catheter being open. Post-operatively, an antibiotic (ampicillin) was injected intramuscularly at a dose of 5 mg/100 μL/rat. After recovery from anesthesia, blood (400 μL) was collected from the catheter placed in the jugular vein, then injected into a tube containing sodium heparin, and stored on ice. The blood was promptly fractionated to obtain plasma, and the inorganic phosphorus concentration in the plasma was promptly measured using a Fuji Dry Chem Slide (produced by Fuji Film Corporation). The rats were grouped into predetermined groups using the obtained measurements and body weight data as indices.
# The physiological saline was replaced with a nutrient infusion preparation or an electrolyte preparation at 5 p.m. to start administration to the animals. The nutrient infusion preparation used was Elneopa-NF No. 2 infusion (produced by Otsuka Pharmaceutical Factory Co., Ltd.). The electrolyte formulation used was an electrolyte infusion preparation composed of the electrolyte contained in Elneopa-NF No. 2 infusion. […] Immediately before administering these preparations, either a solvent (dimethyl sulfoxide, produced by Fujifilm Wako Pure Chemicals Corporation; referred to below as “DMSO”) or a solution of 2 mg/mL of rapamycin (produced by Tokyo Chemical Industry Co., Ltd.) whose side effect of inhibiting muscle synthesis was known was intraperitoneally administered by bolus at a dose of 0.75 mL/kg in each case. […]
# Starting at 9 a.m. on the day after the start of administration, blood was collected from the abdominal aorta by using a syringe under isoflurane anesthesia. […] The concentration of inorganic phosphorus in the plasma was determined by an enzymatic method (Determiner L, produced by Hitachi Chemical Diagnostics Systems Co., Ltd.).
smiles,measurement,setting,value
CO[C@H]1C[C@@H]2CC[C@@H](C)[C@@](O)(O2)C(=O)C(=O)N2CCCC[C@H]2C(=O)O[C@H]([C@H](C)C[C@@H]2CC[C@@H](O)[C@H](OC)C2)CC(=O)[C@H](C)/C=C(\C)[C@@H](O)[C@@H](OC)C(=O)[C@H](C)C[C@H](C)/C=C/C=C/C=C/1C [rapamycin],Plasma phosphorus concentration after administration,"LPD (electrolyte + rapamycin): low-protein diet rats, electrolyte infusion 16 h",6.1 ± 0.6 mg/dL
same,Plasma phosphorus concentration after administration,"LPD (refeeding + rapamycin): low-protein diet rats, nutrient infusion 16 h",4.2 ± 0.4 mg/dL
same,Plasma phosphorus concentration after administration,"NPD (electrolyte + rapamycin): normal diet rats, electrolyte infusion 16 h",6.4 ± 0.4 mg/dL
same,Plasma phosphorus concentration after administration,"NPD (refeeding + rapamycin): normal diet rats, nutrient infusion 16 h",4.7 ± 0.4 mg/dL
